Test results published in patent US20240010726A1, “LFA-1 SIGNALLING MEDIATOR FOR USE IN CANCER THERAPY” (Universität Basel, priority 2020, published 2024).

Assays:
[1] = test system: luciferase-expressing EL4 target cells; experiment: Cytotoxicity assay of WT and LFA-1−/− OT1 CTLs with luciferase-expressing EL4 target cells; format: cell-based, murine; conditions: EL4 pulsed with altered OVA peptides (G4, H7, R7) at 10^−6 M; 4 h; E:T 3:1; 1.2 mM or 0 mM Mg^2+
Experimental: FIG. 4: Magnesium regulates LFA-1 mediated T cell activation and cytotoxicity within physiologic range • (a) Metabolic flux analysis of human EM CD8 T cells upon supra-physiologic activation with anti-CD3 and anti-CD28 Ab, and additional injection of secondary, cross-linking anti-CD3/28 Ab, in medium containing 1.2 mM Mg^2+, 0 mM Mg^2+, or medium which was reconstituted to 1.2 mM Mg^2+ immediately prior to activation (0→1.2 mM Mg^2+). Pooled results from n=6 healthy donors from 3 independent experiments. (b) CD69 expression of PHA T cell blasts upon activation with indicated concentrations of plate-bound anti-CD3 mAb in ±Mg^2+ containing medium. […] Cytotoxicity was quantified after adding luciferin to medium and measuring luminescent signal intensity. […] Cytotoxicity was quantified after adding luciferin to medium and measuring luminescent signal intensity. […]
OT-I derived CTLs were stimulated with OVA257-264 peptide ([…], Eurogentec) or the altered peptide ligands R7 ([…], Eurogentec), H7 ([…], Eurogentec) or G4 ([…], Eurogentec) at 10 μM for 4 h. […] Cytotoxicity was either evaluated with fluorogenic caspase-3 substrate (as described above) or luciferase-expressing EL4 target cells. Cytotoxicity was quantified after adding luciferin at 0.15 mg ml^−1 (PerkinElmer) to medium and measuring luminescent signal intensity by plate reader (Synergy H1, BioTek).

REP T cells = experiment: FAK phosphorylation and CD107a degranulation of REP T cells co-incubated with T2 target cells; format: cell-based, human; conditions: pulsed T2 target cells; presence vs absence of extracellular Mg^2+
Experimental: FIG. 3: Magnesium regulates LFA-1 mediated T cell activation and cytotoxicity as well BiTE- and CAR T-cell functionality. (a) Glycolytic switch of murine WT and LFA-1^−/− CTLs upon injection of anti-CD3/28 Ab in medium containing 1.2 mM Mg^2+ and 0 mM Mg^2+, presented as quantification of summarized data with n=4 mice. (b) Calcium flux in WT and LFA-1^−/− Jurkat T cells stimulated with anti-CD3 Ab in 1.2 mM and 0 mM Mg^2+ medium, respectively. Cells were loaded with Fluo4, and signal intensity as recorded by plate reader, was normalized to unstimulated baseline values. […] Quantified results of n=3 mice with 3 technical replicates each. (d) Caspase-3 activity in EL4 target cells after co-culture with murine WT and LFA-1^−/− CTLs under the conditions as in (c) for 4 hours, in presence of 10 μg/ml PHA. The effector to target cell ratio was 3:1. Results are quantified of n=3 mice with 3 technical replicates each. (e) Representative CD11a (LFA-1) surface expression on human naïve and EM CD8 T cells, PHA T cell blasts and REP T cells, assessed by flow cytometry. Flow cytometry-based assessment of inactivate LFA-1 with bent conformation (f), extended conformation with β2 leg extension (g), LFA-1 with open head-piece (h), phosphorylation of FAK, expression of degranulation marker CD107a (j) on REP T cells after co-incubation with T2 target cells (pulsed with 10^−8 M 9c peptide) in same condition as in (c). The effector to target cell ratio was 1:1. Data is presented as quantified results of n=5 healthy donors (f, g, h), n=3 healthy donors with 2 technical replicates each or n=1 healthy donor with 4 technical replicates (j). […] Data is presented as quantified results of n=1 healthy donor with 4 technical replicates. […] Cytotoxicity is reported as total area under the curve of the fluorescence driven by incorporation of cytotoxic green reagent in dead target cells (green area per μm^2). […] (p) Abundance of IFNγ in cell culture supernatants corresponding to the conditions depicted in (o) at 24 hours was determined by ELISA (n=8, 3 independent experiments). […]

With [Mg+2] [Mg^2+, Magnesium] the “Specific target cell lysis by OT1 CTLs” value [1] was “confirmed across a spectrum of TCR affinities”, the “Degranulation (CD107a) of REP T cells” value (REP T cells) was “significantly increased” and the “FAK phosphorylation in REP T cells” value (REP T cells) was “significantly increased”.
